US20230310432A1 (JULIUS-MAXIMILIANS-UNIVERSITÄT WÜRZBURG, priority 2017, published 2023)

Experiments:
[1] = system: CD8+ T cells expressing a ROR1 CAR with 4-1BB costimulatory domain; test: CFSE proliferation assay, co-culture with K562/ROR1; assay type: cell-based, human; conditions: dasatinib ≥50 nM; 72 h
Protocol: (§1) Proliferation: T cells were labeled with 0.2 μM carboxyfluorescein succinimidyl ester (CFSE, Invitrogen), washed and plated in duplicate or triplicate wells with irradiated (80 Gy) stimulator cells at an E:T ratio of 4:1 (K562/ROR1, K562/CD19 or RCH-ACV). No exogenous cytokines were added to the culture medium. After a 72-hour incubation, cells were labeled with anti-CD3 mAb, and analyzed by flow cytometry to assess cell division of T cells.
(§2) CAR-T cells were labeled with CFSE and co-cultured with K562 that the inventors had transduced with either CD19 (for testing CD19 CAR-T cells) or ROR1 (for testing ROR1 CAR-T cells). Dasatinib was added to the assay medium at the beginning of the co-culture assay. Flow cytometric analyses were performed to determine the proliferation of T cells at the end of the co-culture assay.

[2] = system: CD8+ T cells expressing a ROR1 CAR with 4-1BB costimulatory domain; test: Bioluminescence-based cytotoxicity assay, RCH-ACV target cells; assay type: cell-based, human; conditions: 100 nM dasatinib; t=8 hours; >90% untreated
[3] = system: CD8+ T cells expressing a CD19 CAR with CD28 costimulatory domain; test: Bioluminescence-based cytotoxicity assay, K562/CD19 target cells; assay type: cell-based, human
[4] = system: CD8+ T cells expressing a CD19 CAR with CD28 costimulatory domain; test: CFSE proliferation assay, co-culture with K562/CD19; assay type: cell-based, human; conditions: dasatinib ≥50 nM; 72 h
Protocol: as §1, §2

[5] = system: CD8+ T cells expressing a ROR1 CAR with 4-1BB costimulatory domain; test: Cytokine production and secretion (IFN-γ, IL-2 ELISA), co-culture with K562/ROR1; assay type: cell-based, human; conditions: dasatinib ≥50 nM; 20 h
Protocol: (§3) Cytokine secretion: 5×10^4 T-cells were plated in duplicate or triplicate wells with target cells at an E:T ratio of 4:1 (K562/ROR1, K562/CD19, RCH-ACV), and IFN-γ and IL-2 were measured by ELISA, or cytokine panels were measured by multiplex cytokine immunoassay (Luminex) in supernatant removed after 20-h incubation. Specific cytokine production was calculated by subtracting the amount of cytokines released by unstimulated CAR-T cells from the amount of cytokines released after antigen-specific stimulation. The remaining cytokine secretion in % as shown in the diagrams is normalized to CAR-T cells in the absence of dasatinib-treatment (100%).
(§4) CAR-T cells were co-cultured with K562 that the inventors had transduced with either CD19 (for testing CD19 CAR-T cells) or ROR1 (for testing ROR1 CAR-T cells). Dasatinib was added to the assay medium at the beginning of the co-culture assay. ELISA was performed to detect IFN-γ and IL-2 in supernatant removed from the co-culture.

[6] = system: NFAT/GFP reporter in CD4+ T cells co-expressing the CD19 CAR with 4-1BB costimulatory domain; test: NFAT/GFP reporter assay during sequential stimulation; assay type: cell-based, human
[7] = system: CD8+ T cells expressing a CD19 CAR with CD28 costimulatory domain; test: Cytokine production and secretion (IFN-γ, IL-2 ELISA), co-culture with K562/CD19; assay type: cell-based, human; conditions: dasatinib ≥50 nM; 20 h
Protocol: as §3, §4

[8] = system: CD4+ T cells expressing a SLAMF7 CAR with CD28 costimulatory domain; test: Cytokine ELISA, co-culture with K562/SLAMF7; assay type: cell-based, human; conditions: dasatinib 20 nM; 20 h
Protocol: as §3
(§5) The inventors prepared SLAMF7-specific CD8^+ and CD4^+ CAR-T cell lines from n=2 healthy donors. In each of the T-cell lines, the inventors enriched CAR-expressing T cells to >90% purity using the EGFRt-transduction marker. […] CAR-T cells were co-cultured with K562 that the inventors had transduced with SLAMF7. Dasatinib was added to the assay medium at the beginning of the co-culture assay. ELISA was performed to detect IFN-γ and IL-2 in supernatant removed from the co-culture.

[9] = system: CD8+ T cells expressing a SLAMF7 CAR with CD28 costimulatory domain; test: Cytokine ELISA, co-culture with K562/SLAMF7; assay type: cell-based, human; conditions: 20 h
Protocol: as §3, §5

[10] = system: CD8+ T cells expressing a SLAMF7 CAR with 4-1BB costimulation; test: Cytokine ELISA, co-culture with K562/SLAMF7; assay type: cell-based, human; conditions: 20 h
Protocol: as §3, §5

[11] = system: CD4+ T cells expressing a SLAMF7 CAR with 4-1BB costimulatory domain; test: Cytokine ELISA, co-culture with K562/SLAMF7; assay type: cell-based, human; conditions: dasatinib ≥20 nM; 20 h
Protocol: as §3, §5

[12] = system: activated CD19 CAR/CD28-T cells; Raji tumor cells; test: Raji tumor burden by bioluminescence imaging, function ON/OFF/ON (Example 8); assay type: in vivo, NSG mice
Protocol: The Institutional Animal Care and Use Committee of UKW approved all mouse experiments. NOD.Cg-Prkdc^scidIl2rg^tm1wjl/SzJ (NSG) mice (female, 6-8 week old) were purchased from Charles River (Sulzfeld, Germany). Mice were inoculated with 1×10^6 Raji/ffluc_GFP tumor cells via tail vein injection (i.v.). Mice were treated with 5×10^6 CAR-modified or control untransduced T-cells (CD4:CD8 ratio=1:1) via tail vein injection (i.v.). […] Tumor burden and distribution was analyzed by serial bioluminescence imaging on an IVIS Lumina imager (Perkin Elmer, Baesweiler, Germany): mice received i.p. injections of 0.3 mg/g luciferin and images were acquired 10 minutes after luciferin injection in small binning mode at an acquisition time of 1 s to 1 min to obtain unsaturated images. Data were analyzed using LivingImage Software (Caliper) and the average radiance (or photon flux) analyzed in regions of interest that encompassed the entire body of each individual mouse. Mice were sacrificed at the end of the experiment and human T cells in bone marrow, peripheral blood and spleen were analyzed by flow cytometry. The presence of (human) cytokines in serum was measured using multiplex cytokine analysis. […]
Raji tumor burden was determined by bioluminescence imaging on day 7, day 10, day 12, day 14, day 17, and subsequently, once a week.

[13] = system: CD8+ T cells expressing a CD19 CAR with 4-1BB costimulation; test: Cytokine production and secretion (IFN-γ, IL-2 ELISA), co-culture with K562/CD19; assay type: cell-based, human; conditions: 20 h
[14] = dasatinib 100 nM added 2 hours after the start of the co-culture

Cc1nc(Nc2ncc(C(=O)Nc3c(C)cccc3Cl)s2)cc(N2CCN(CCO)CC2)n1 [dasatinib]
residual proliferation compared to non-dasatinib treated CAR-T cells [1]: less than 7%
specific lysis [2]: < 5%
specific lysis of target cells ([3]; dasatinib 50 nM, t=5 h, 52% by non-dasatinib treated): less than 23%
residual specific lysis of target cells ([3]; dasatinib 50 nM, t=10 h, 91% by non-dasatinib treated): 47%
specific lysis of target cells ([3]; dasatinib 100 nM, any given time point, 91% by non-dasatinib treated at t=10 h): less than 10%
residual proliferation compared to non-dasatinib treated CAR-T cells [4]: less than 7%
residual IFN-γ production compared to non-dasatinib treated CAR-T cells [5]: less than 3%
residual IL-2 production compared to non-dasatinib treated CAR-T cells [5]: less than 8.5%
GFP MFI ([6]; day 1, dasatinib present from the beginning): 317
GFP MFI ([6]; day 3, treated at 1 hour after assay set up, 2499 in untreated): 326
GFP MFI ([6]; day 3, treated from the beginning, 2499 in untreated): 108
residual specific IFN-γ production compared to non-dasatinib treated CAR-T cells [7]: less than 4.5%
residual IFN-γ [8]: less than 1.2%
residual specific IFN-γ production ([9]; dasatinib ≥20 nM): less than 4%
residual specific IFN-γ production ([9]; dasatinib ≥40 nM): less than 0.2%
residual specific IFN-γ production ([10]; dasatinib 20 nM): less than 15%
residual specific IFN-γ production ([10]; dasatinib ≥40 nM): less than 0.8%
residual IFN-γ [11]: less than 0.5%
mean reduction of BLI ([12]; between day 12 and 14, previously treated with dasatinib): 71%
median BLI ([12]; day 17, CAR/Dasa, 966 CAR/vehicle, 839 CAR alone): 507
residual IFN-γ production (untreated CAR-T cells=100%) [13, 14]: 51%
residual IL-2 production (untreated CAR-T cells=100%) [13, 14]: 28%
residual specific IFN-γ production compared to non-dasatinib treated CAR-T cells ([13]; dasatinib ≥6.25 nM): less than 45%
residual specific IL-2 production compared to non-dasatinib treated CAR-T cells ([13]; dasatinib ≥6.25 nM): less than 60%
residual specific IL-2 production compared to non-dasatinib treated CAR-T cells ([13]; dasatinib ≥50 nM): less than 1%
